From US6538029B1, “Methods for treatment of renal cell carcinoma” (Cell Pathways, priority 2002, dated 2003)
Where a name gives a salt, the structure may show the parent alone. Read-outs that look alike come from different tables or passages of the source.

Tests used:
[1] = 91-day oral study in dogs; format: in vivo
[2] = 91-day long-term safety assessment study in rats; format: in vivo
From the text: These changes were not associated with any gross clinical abnormality.

[3] = Acute toxicity study in rats; settings: rat, in vivo
28-day study in rats = format: in vivo
Procedure: A 28-day study in rats was also carried out at 0, 50, 500 and 2000 mg/kg/day.

786-O cells [4] = format: cell-based; settings: Homo sapiens, 786-0, 144 h; 6 days with drug, sulforhodamine B
Procedure: Testing of Neoplastic Cell Growth Inhibition of PDE10-Inhibiting Compounds on Renal Cell Carcinoma (786-O) Cells. […] After 24 hours, the media was removed, and the same media containing the drug was added to the cells (0.1% DMSO final concentration).

[5] = dog, in vivo
Procedure: (§3) Therefore, these dogs were subsequently administered seven consecutive doses of 1000 mg/kg/day.

786-O cells [6] = experiment: Apoptosis on 786-O cells (Roche Cell Death Assay); format: cell-based, human; settings: Homo sapiens, 786-0; 48 hours with drug; read-out: IC50 for induction of apoptosis in the 786-O cell line
Procedure: Testing of PDE10-Inhibiting Compounds for Apoptosis on Renal Carcinoma (786-O) Cells. […] After 24 hours, the media was removed and the same media containing the drug was added to the cells (0.1% DMSO final concentration). After 48 hours, apoptosis was detected using the Roche Cell Death Assay.

[7] = rat, in vivo
PDEI = experiment: PDE inhibition, PDEI (similar protocols); format: biochemical
PDE5 = molecular target: T1, PDE5 (Homo sapiens, UniProt O76074); experiment: cGMP PDE inhibition, PDE5; format: biochemical
T1 construct: partially purified cGMP-specific PDE isolated from HT-29 cells; endogenous in cells; host or cells: HT-29 cells (partially purified enzyme)
From the text: Compounds of this invention are also PDE2 and PDE5 inhibitors as taught in part U.S. patent application Ser. No. 09/046,739 filed Mar. 24, 1998, now abandoned. Compounds can be tested for inhibitory effect on phosphodiesterase activity using either the enzyme isolated from any tumor cell line such as HT-29 or SW-480. […] (Thompson, W. J., Teraski, W. L., Epstein, P. M., Strada, S. J., Advances in Cyclic Nucleotide Research, 10:69-92, 1979, which is incorporated herein by reference). In brief, asolution of defined substrate ^3H-cGMP specific activity (0.2 μM; 100,000 cpm; containing 40 mM Tris-HCl (pH 8.0), 5 mM MgCl2 and 1 mg/ml BSA) is mixed with the drug to be tested in a total volume of 400μl. The mixture is incubated at 30° C. for 10 minutes with partially purified cGMP-specific PDE isolated from HT-29 cells. Reactions are terminated, for example, by boiling the reaction mixture for 75 seconds. After cooling on ice, 100 μl of 0.5 mg/ml snake venom (O. Hannah venom available from Sigma) is added and incubated for 10 min at 30° C. […] The amount of radioactivity in the breakthrough and the wash from the columns in then measured with a scintillation counter. The degree of PDE5 inhibition is determined by calculating the amount of radioactivity in drug-treated reactions and comparing against a control sample (a reaction mixture lacking the tested compound).

PDE10 from 786-O = PDE10 from 786-O (Homo sapiens, UniProt Q9Y233); experiment: Inhibition and kinetics of PDE10 from 786-O (pooled fractions of the center peak); format: biochemical; settings: IC50 on PDE10 from 786-O (inhibition of cGMP PDE activity), pooled center-peak fractions; FIG. 8, 9
Procedure: (§1) Fractions were pooled from a 786-O profile from the center peak.
as §1
(§2) Protein assays were determined using the Bio-Rad DC Protein Assay. A nonlinear regression to the Michalis-Menten equation in Prism was used to determine the Km and Vmax.
as §2

[8] = Single, escalating dose normal human volunteer clinical trial; format: in vivo; settings: normal human volunteers, oral single escalating dose, any dose (50 mg-700 TDD)
PDE4 = experiment: PDE inhibition, PDE4 (similar protocols); format: biochemical
renal cell carcinoma = experiment: Human clinical study in locally advanced or metastatic renal cell cancer; format: in vivo
Procedure: Patients were treated with 400 mg daily (200 mg twice daily) and continued at this dose throughout the study, provided no intolerable toxicity or disease progression occurred. Disease response was assessed by physical examination, chest x-ray and MRI or CT scan every eight weeks.
Nineteen patients with heavily pre-treated advanced, progressive renal cell carcinoma were entered into the study. […] The patients were on drug daily for a minimum of eight weeks.
The adverse events, which were reported (regardless of relationship), were of the nature and severity expected in this patient population.

[9] = Acute and seven-dose toxicity in dogs (capsules); settings: both, dog, in vivo, po, 1000 mg/kg
Procedure: as §3

[10] = Seven-day dose-range finding study in rats; format: in vivo; settings: seven days
[11] = Phase I trial in patients with a range of solid tumors; format: in vivo
Procedure: Cycles were repeated without a treatment-free interval. Doses ranged from 100 to 800 mg/day.

[12] = 28 days, 50, 500 and 2000 mg/kg/day

Chain of PDE10 from 786-O (Q9Y233 290-1055 limits assumed): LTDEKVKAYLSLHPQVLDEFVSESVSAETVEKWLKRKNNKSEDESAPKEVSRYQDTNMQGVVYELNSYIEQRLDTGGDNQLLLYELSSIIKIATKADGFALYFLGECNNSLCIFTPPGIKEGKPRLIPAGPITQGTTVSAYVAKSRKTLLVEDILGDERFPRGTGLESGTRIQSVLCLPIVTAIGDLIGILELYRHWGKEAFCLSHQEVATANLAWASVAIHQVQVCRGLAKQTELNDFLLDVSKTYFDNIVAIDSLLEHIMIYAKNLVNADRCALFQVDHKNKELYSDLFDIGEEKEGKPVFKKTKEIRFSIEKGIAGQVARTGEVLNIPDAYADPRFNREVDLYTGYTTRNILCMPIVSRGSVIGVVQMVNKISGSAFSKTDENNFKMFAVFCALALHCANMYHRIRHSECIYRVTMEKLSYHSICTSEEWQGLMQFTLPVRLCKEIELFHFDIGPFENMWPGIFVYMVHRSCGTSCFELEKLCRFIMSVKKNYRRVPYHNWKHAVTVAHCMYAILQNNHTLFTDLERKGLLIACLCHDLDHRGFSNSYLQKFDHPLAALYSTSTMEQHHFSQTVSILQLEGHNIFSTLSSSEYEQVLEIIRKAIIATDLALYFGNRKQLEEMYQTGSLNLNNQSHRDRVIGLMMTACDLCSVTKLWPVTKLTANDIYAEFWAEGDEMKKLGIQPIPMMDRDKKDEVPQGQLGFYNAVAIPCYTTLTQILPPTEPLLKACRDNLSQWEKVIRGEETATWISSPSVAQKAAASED

Structure (SMILES): CC1=C(CC(=O)NCc2ccccc2)c2cc(F)ccc2C1=Cc1ccncc1 [Compound 38, (Z)-5-Fluoro-2-methyl-(4-pyridylidene)-3-(N-benzyl)indenylacetamide Hydrochloride]
- Microscopic alterations (liver) ([1]; 91 days): no microscopic alterations
- Tolerability ([1]; 91 days): well tolerated
- Feces ([1]; 91 days, 150 and 300 mg/kg/day groups): Orange discoloration of the feces
- Body weights ([1]; 91 days, highest dose group): Slightly lowered body weights
- Liver weights ([1]; 91 days, highest dose group): increased liver weights
- Toxicological effects ([1]; oral, 91 consecutive days, 50, 150 and 300 mg/kg/day): no toxicological effects
- Clinical biochemistry and hematology ([2]; 91 days): no changes
- Microscopic findings ([2]; 91 days): slight hepatocellular hypertrophy at 200 and 500 mg/kg/day groups, follicular cell hypertrophy at 500 mg/kg/day and increase in accumulation of hyalin droplets in the kidneys at 200 and 500 mg/kg/day group
- Organ weights ([2]; 91 days, males and females at 200 and 500 mg/kg/day): dose-related trend to increased liver and thyroid/parathyroid weights
- Toxicological effects ([2]; oral, 91 consecutive days, 50, 200 and 500 mg/kg/day): did not produce any major toxicological effects
- LD50 ([3]; ip, 1000 mg/kg): > 1000 mg/kg
- LD50 ([3]; po): > 2000 mg/kg
- Macroscopic tissue changes at necropsy (28-day study in rats; 28 days): No macroscopic tissue changes
- Liver weights (28-day study in rats; 28 days, 2000 mg/kg/day): statistically significant increase
- Thyroid weights (28-day study in rats; 28 days, 2000 mg/kg/day): statistically significant increases
- Body weight changes, ophthalmoscopic examinations, hematological and blood chemistry values, urinalysis (28-day study in rats; [12]): unremarkable
- Clinical observations (28-day study in rats; [12]): no abnormal clinical observations
- Histopathological evaluation of tissues (28-day study in rats; 28 days, generally a small number of animals at 2000 mg/kg/day, one female at 500 mg/kg/day): traces of follicular cell hypertrophy, increased numbers of mitotic figures (suggestive of possible cell proliferation) in the thyroid gland and mild centrilobular hypertrophy in the liver
- Slight liver and thyroid increases (28-day study in rats; 28 days, lower doses): not statistically significant
- IC50 (786-O cells [4]): 1.1 µM
- Signs of toxicity ([5]; 1000 mg/kg): no signs of toxicity
- Signs of drug-related effects ([5]; 1000 mg/kg/day): At no time in either dosing phase were any obvious signs of drug-related effects observed
- IC50 (786-O cells [6]): 1 µM
- Body weight gain ([7]; ip, 1000 mg/kg): reduced body weight gain
- Necropsy finding ([7]; ip, 1000 mg/kg): mesenteric adhesions seen in some animals
- Body weight gains ([7]; po, 2000 mg/kg): slightly reduced
- IC50 (PDEI): 3 µM
- IC50 (PDE5): 4 µM
- IC50 (PDE10 from 786-O): 3.7 µM
- Side effects [8]: no significant side effects
- IC50 (PDE4): 6 µM
- Serious Adverse Events due to the drug (renal cell carcinoma; 400 mg daily, renal cell carcinoma patients): No Serious Adverse Event due to the drug was reported
- Patients who achieved stable disease (renal cell carcinoma; interim evaluation of 16 evaluable patients, 400 mg daily (200 mg twice daily), minimum of eight weeks): six
- LD50 [9]: > 1000 mg/kg
- Signs of toxicity ([10]; 50 mg/kg/day): no observable signs of toxicity
- Treatment-related effects ([10]; 500 mg/kg/day): an increase in absolute and relative liver weights in female rats
- Treatment-related effects ([10]; 2000 mg/kg/day): labored breathing and/or abnormal respiratory sounds, decreased weights gains and food consumption in male rats, and increased liver weights in female rats
- Hematology, blood chemistry, microscopic pathology ([10]; any dose level (50, 500, 2000 mg/kg/day)): No hematological or blood chemistry changes nor any microscopic pathology changes
- Tolerability of therapy ([11]; 21 patients, orally twice daily for 28 consecutive days, 100 to 800 mg/day): well tolerated overall
- Maximum tolerated dose ([11]; 100 to 800 mg/day): not reached
- Toxicity ([11]; up to 800 mg TDD, orally, twice-daily schedule): minimally toxic
